Data taken from patent publication US9315458B2, “Nitrogen-containing heterocyclic compound” (Takeda Pharmaceutical Company Limited, priority 2014, dated 2016).

Key:
[1] = biological target: T1, human M1 receptor (hCHRM1) (Homo sapiens, UniProt P11229); assay: Measurement of M1 receptor positive allosteric modulator (M1PAM) activity, calcium fluorescence (FLIPRtetra) with acetylcholine at EC20; type: cell-based; details: for activity (%) at 10 μM: 10 μM test compound, 100% = acetylcholine 1 μM, 0% = DMSO, acetylcholine at EC20; for EC50: inflection point of concentration-dependent curve, CHO-K1 cells expressing hCHRM1, acetylcholine at EC20 (final 0.6-0.8 nM), read-out: IP value
T1 construct: expressed in transfected cells
T1 sequence (P11229 1-460): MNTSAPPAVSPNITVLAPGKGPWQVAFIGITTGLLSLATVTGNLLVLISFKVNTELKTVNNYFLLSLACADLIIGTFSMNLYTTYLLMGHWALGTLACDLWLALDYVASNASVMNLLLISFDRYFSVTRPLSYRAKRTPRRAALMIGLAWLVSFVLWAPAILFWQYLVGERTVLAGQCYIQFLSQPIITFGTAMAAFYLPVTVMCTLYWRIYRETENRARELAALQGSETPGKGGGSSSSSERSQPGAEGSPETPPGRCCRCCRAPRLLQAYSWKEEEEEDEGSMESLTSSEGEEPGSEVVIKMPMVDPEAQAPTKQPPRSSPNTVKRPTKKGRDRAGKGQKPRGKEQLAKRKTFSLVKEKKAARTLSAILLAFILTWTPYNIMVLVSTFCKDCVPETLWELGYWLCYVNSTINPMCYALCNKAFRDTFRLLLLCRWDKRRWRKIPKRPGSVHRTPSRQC
Procedure, shortened: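 CHO-K1 cells stably expressing hCHRM1, Fluo-4 AM loaded; compound added with acetylcholine at EC20 (final 0.6-0.8 nM), fluorescence read 1 min. Activity normalised to 1 μM acetylcholine (100%) and DMSO (0%); IP values taken as inflection point of the concentration-response curve.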

[2] = tested on: IP1 production in hippocampi; assay: Measurement of myo-inositol 1 phosphate (IP1) in hippocampus after oral administration; type: in vivo, male Long-Evans rats; details: 10 mg/kg oral, rat hippocampus, IP1/protein ratio, lithium chloride s.c.
Text: Animals used were male Long-Evans rats. They were used after acclimation for at least 1 week. Test compounds were suspended in 0.5% aqueous methylcellulose solution, and the suspension was orally administered to the rats. At a certain period of time after the oral administration, the solution prepared by dissolving lithium chloride in saline was subcutaneously administered into the rats. At a certain period of time after the subcutaneously administration, their bilateral hippocampi were isolated from the rats, and the wet weight thereof was measured. The hippocampi were homogenized with HEPES buffer, followed by centrifugation. The IP1 and protein concentrations in the supernatant were measured by IP-One HTRF assay kit (Cisbio Bioassays) and BCA protein assay kit (Thermo Scientific), respectively. The level of the IP1 production was expressed as the ratio of the concentration of IP1 to that of protein. The increase rate of the IP1 production was shown as a relative value when Vehicle administration group as 100%.

[3] = tested on: Scopolamine-induced memory deficits models; assay: Novel object recognition test; type: in vivo, male Long-Evans rats; details: 3 mg/kg oral 2 hr before acquisition trial; scopolamine 0.1 mg/kg s.c.; mean±standard error; control 63.35±1.59%, solvent-scopolamine 52.08±2.47%
Description: Novel object recognition test is comprised of two trials called the acquisition and the retention trials. Scopolamine-induced memory deficits models were used for the test, and animals used were male Long-Evans rats (7-week-old). On the day before the test, for acclimation, the rats were allowed to freely move about the test box (40×40×50 cm) for 10 minutes. On the test day, the rats were acclimated to the test room for about 1 hr prior to the test. The test compounds were orally administered to the rats in a single dose 2 hr before the acquisition trial. For induction of learning and memory deficits, scopolamine (0.1 mg/kg) was subcutaneously administered into the rats 30 min before the acquisition trial. For the acquisition trial, two identical objects (A1, A2) were placed in the test box. The rats were put in the test box for 3 min, and the duration exploring each object was measured. The retention trial was performed 4 hr after the acquisition trial. For the retention trial, the familiar object (A3) used for the acquisition trial and the novel object (B) different shape from A3 were placed in the test box. The rats were put in the test box for 3 min. The duration exploring each object in the acquisition trial and the retention trial, and the exploration rate (%) of novel object was calculated. The exploration rate (%) of novel object was expressed as (the duration exploring the novel object)/[(the duration exploring the novel object)+(the duration exploring the familiar object)]×100(%) at mean±standard error.

| Compound | activity (%) at 10 μM [1] [%] | EC50 [1] [nM] | increase rate at 10 mg/kg (% of Vehicle) [2] | exploration rate (%) of novel object [3] [%] |
| --- | --- | --- | --- | --- |
| CCOc1ccc(Cc2cc3c(c(C)c2C)CN([C@H]2COCC[C@@H]2O)C3=O)cc1 [Example 142, 6-(4-ethoxybenzyl)-2-[(3S,4S)-4-hydroxytetrahydro-2H-pyran-3-yl]-4,5-dimethyl-2,3-dihydro-1H-isoinol-1-one] | 106 | 31 | – | – |
| CCc1cc2c(cc1Cc1ccc(OC)cc1)C(=O)N([C@H]1COCC[C@@H]1O)C2 [Example 148, 5-ethyl-2-[(3S,4S)-4-hydroxytetrahydro-2H-pyran-3-yl]-6-(4-methoxybenzyl)-2,3-dihydro-1H-isoindol-1-one] | 89 | 63 | – | – |
| COc1ccc(Cc2cc3c(c(Cl)c2C)CN([C@H]2CCC[C@@H]2O)C3=O)cc1 [Example 152, 4-chloro-2-((1S,2S)-2-hydroxycyclopentyl)-6-(4-methoxybenzyl)-5-methylisoindolin-1-one] | 91 | 47 | – | – |
| Cc1c(Cc2ccc(-n3cccn3)cc2)cc2c(c1C)CN(c1ncccc1F)C2=O [Example 153, 2-(3-fluoropyridin-2-yl)-4,5-dimethyl-6-(4-(1H-pyrazol-1-yl)benzyl)isoindolin-1-one] | 92 | 57 | – | – |
| COc1ccc(Cc2cc3c(c(F)c2OC)CN([C@H]2COCC[C@@H]2O)C3=O)cc1 [Example 157] | 97 | 84 | – | – |
| COc1ccc(Cc2cc3c(c(C)c2C)CN([C@H]2COCC[C@@H]2O)C3=O)cc1C [Example 160, 2-[(3S,4S)-4-hydroxytetrahydro-2H-pyran-3-yl]-6-(4-methoxy-3-methylbenzyl)-4,5-dimethyl-2,3-dihydro-1H-isoindol-1-one] | 112 | 47 | – | – |
| COc1ccc(Cc2cc3c(c(F)c2OC)CN([C@H]2CCCC[C@@H]2O)C3=O)cc1 [Example 161, 4-fluoro-2-((1S,2S)-2-hydroxycyclohexyl)-5-methoxy-6-(4-methoxybenzyl)isoindol-1-one] | 94 | 32 | – | – |
| Cc1c(Cc2ccc(-n3cccn3)cc2)cc2c(c1C)CN(c1ncc(Cl)cc1F)C2=O [Example 162, 2-(5-chloro-3-fluoropyridin-2-yl)-4,5-dimethyl-6-(4-(1H-pyrazol-1-yl)benzyl)isoindolin-1-one] | 95 | 66 | – | – |
| COc1ccc(Cc2cc3c(c(C)c2C)CN([C@H]2COCC[C@@H]2O)C3=O)c(F)c1 [Example 163, 6-(2-fluoro-4-methoxybenzyl)-2-[(3S,4S)-4-hydroxytetrahydro-2H-pyran-3-yl]-4,5-dimethyl-2,3-dihydro-1H-isoindol-1-one] | 108 | 51 | – | – |
| COc1ccc(Cc2cc3c(cc2C)CN([C@H]2COCC[C@@H]2O)C3=O)cc1 [Example 164, 2-[(3S,4S)-4-hydroxytetrahydro-2H-pyran-3-yl]-6-(4-methoxybenzyl)-5-methyl-2,3-dihydro-1H-isoindol-1-one] | 102 | 62 | – | – |
| COc1ccc(Cc2cc3c(cc2C)CN([C@H]2CCCC[C@@H]2O)C3=O)cc1 [Example 167, 2-((1S,2S)-2-hydroxycyclohexyl)-6-(4-methoxybenzyl)-5-methylisoindolin-1-one] | 95 | 30 | – | – |

These reach a lower EC50 [1]. Values come first.

| activity (%) at 10 μM [1] [%] | EC50 [1] [nM] | Compound | increase rate at 10 mg/kg (% of Vehicle) [2] | exploration rate (%) of novel object [3] [%] |
| --- | --- | --- | --- | --- |
| 88 | 10 | COc1ccc(Cc2cc3c(c(C)c2C)CN([C@H]2COCC[C@@H]2O)C3=O)cc1 [Example 18, 2-[(3S,4S)-4-hydroxytetrahydro-2H-pyran-3-yl]-6-(4-methoxybenzyl)-4,5-dimethyl-2,3-dihydro-1H-isoindol-1-one] | 40 % of Vehicle | 59.11±3.87 |
| 102 | 14 | CNC(=O)c1ccc(Cc2cc3c(c(C)c2C)CN(C[C@@H]2CCCO2)C3=O)cc1F [Example 139, 4-((6,7-dimethyl-3-oxo-2-((2S)-tetrahydrofuran-2-ylmethyl)-2,3-dihydro-1H-isoindol-5-yl)methyl)-2-fluoro-N-methylbenzamide] | – | – |
| 93 | 2 | Cc1c(Cc2ccc(-c3ccn(C)n3)cc2)cc2c(c1F)CN([C@H]1COCC[C@@H]1O)C2=O [Example 140, 4-fluoro-2-[(3S,4S)-4-hydroxytetrahydro-2H-pyran-3-yl]-5-methyl-6-[4-(1-methyl-1H-pyrazol-3-yl)benzyl]-2,3-dihydro-1H-isoindol-1-one] | – | – |
| 106 | 18 | COc1ccc(Cc2cc3c(c(C)c2C)CN([C@H]2CCCC[C@@H]2O)C3=O)cc1 [Example 141, 2-((1S,2S)-2-hydroxycyclohexyl)-6-(4-methoxybenzyl)-4,5-dimethylisoindolin-1-one] | – | – |
| 97 | 23 | CCc1cc2c(cc1Cc1ccc(-n3cccn3)cc1F)C(=O)N([C@H]1COCC[C@@H]1O)C2 [Example 144, 5-ethyl-6-[2-fluoro-4-(1H-pyrazol-1-yl)benzyl]-2-[(3S,4S)-4-hydroxytetrahydro-2H-pyran-3-yl]-2,3-dihydro-1H-isoindol-1-one] | – | – |
| 99 | 16 | CCc1ccc(Cc2cc3c(c(C)c2C)CN([C@H]2CCCC[C@@H]2O)C3=O)cn1 [Example 149, 6-((6-ethylpyridin-3-yl)methyl)-2-((1S,2S)-2-hydroxycyclohexyl)-4,5-dimethylisoindolin-1-one] | – | – |
| 89 | 14 | COc1ccc(Cc2cc3c(c(F)c2C)CN([C@H]2COCC[C@@H]2O)C3=O)cc1 [Example 150, 4-fluoro-2-[(3S,4S)-4-hydroxytetrahydro-2H-pyran-3-yl]-6-(4-methoxybenzyl)-5-methyl-2,3-dihydro-1H-isoindol-1-one] | – | – |
| 92 | 16 | COc1ccc(Cc2cc3c(c(Cl)c2C)CN([C@H]2CCCC[C@@H]2O)C3=O)cc1 [Example 151, 4-chloro-2-((1S,2S)-2-hydroxycyclohexyl)-6-(4-methoxybenzyl)-5-methylisoindolin-1-one] | – | – |
| 100 | 22 | COc1ccc(Cc2cc3c(c(F)c2C)CN([C@H]2CCCC[C@@H]2O)C3=O)cc1 [Example 154, 4-fluoro-2-((1S,2S)-2-hydroxycyclohexyl)-6-(4-methoxybenzyl)-5-methylisoindolin-1-one] | – | – |
| 100 | 7.1 | Cc1c(Cc2ccc(C#N)cc2)cc2c(c1C)CN([C@H]1CCCC[C@@H]1O)C2=O [Example 155, 4-((2-((1S,2S)-2-hydroxycyclohexyl)-6,7-dimethyl-3-oxo-2,3-dihydro-1H-isoindol-5-yl)methyl)benzonitrile] | – | – |
| 80 | 4.3 | Cc1c(Cc2ccc(C#N)cc2)cc2c(c1C)CN([C@H]1COCC[C@@H]1O)C2=O [Example 156, 4-({2-[(3S,4S)-4-hydroxytetrahydro-2H-pyran-3-yl]-6,7-dimethyl-3-oxo-2,3-dihydro-1H-isoindol-5-yl}methyl)benzonitrile] | – | – |
| 111 | 28 | COc1ccc(Cc2cc3c(c(C)c2C)CN([C@H]2COCC[C@@H]2O)C3=O)cc1F [Example 158, 6-(3-fluoro-4-methoxybenzyl)-2-[(3S,4S)-4-hydroxytetrahydro-2H-pyran-3-yl]-4,5-dimethyl-2,3-dihydro-1H-isoindol-1-one] | – | – |
